Reference: US10584115B2, “Substituted pyridine and pyrazine BMI-1 inhibitors” (PTC Therapeutics, Inc., priority 2013, dated 2020)

These compounds were tested on Bmi-1 protein (assay: Sandwich ELISA Assay (Bmi-1 protein level in HT-1080 cells after compound treatment)). Details: Table 1, Bmi-1 sandwich ELISA, read-out: ELISA EC50 value for Bmi-1 protein.
Format: cell-based
Procedure, shortened: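 Sandwich ELISA quantified Bmi-1 protein against recombinant standard (125–8000 pg/mL), with lysates captured overnight at 4 °C and signal by HRP/TMB at 450 nm (570 nm reference). Lysates came from HT-1080 cells incubated 40–48 h with test compounds in 0.5% DMSO.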

SMILES | EC50
Cc1cc2nc(C)n(-c3cncc(Nc4ccc(C(F)(F)F)cc4)n3)c2cc1C [compound 386, N-[4-(trifluoromethyl)phenyl]-6-(2,5,6-trimethyl-1H-benzimidazol-1-yl)pyrazin-2-amine] | 100 to 3000 nM
Cc1cc2nc(C)n(-c3cncc(Nc4ccc(OC(F)(F)F)cc4)n3)c2cc1C [compound 387, N-[4-(trifluoromethoxy)phenyl]-6-(2,5,6-trimethyl-1H-benzimidazol-1-yl)pyrazin-2-amine] | 100 to 3000 nM
N#Cc1cc(Nc2ccc(C(F)(F)F)c(F)c2)nc(-c2c(CO)nc3ccc(F)cn23)c1 [compound 395, 2-[6-fluoro-2-(hydroxymethyl)imidazo[1,2-a]pyridin-3-yl]-6-{[3-fluoro-4-(trifluoromethyl)phenyl]amino}pyridine-4-carbonitrile] | 100 to 3000 nM
Cc1nc2ccc(NCCO)cc2n1-c1cncc(Nc2ccc(C(F)(F)F)cc2)n1 [compound 397, 2-{[2-methyl-1-(6-{[4-(trifluoromethyl)phenyl]amino}pyrazin-2-yl)-1H-benzimidazol-6-yl]amino}ethanol] | 100 to 3000 nM
CCc1nc2c(n1-c1cncc(Nc3ccc(C(F)(F)F)cc3)n1)CN(C)CC2 [compound 398, 6-(2-ethyl-5-methyl-4,5,6,7-tetrahydro-3H-imidazo[4,5-c]pyridin-3-yl)-N-[4-(trifluoromethyl)phenyl]pyrazin-2-amine] | 100 to 3000 nM
Cc1nc2cc(F)c(F)cc2n1-c1cncc(Nc2ccc(Cl)nc2)n1 [compound 405, N-(6-chloropyridin-3-yl)-6-(5,6-difluoro-2-methyl-1H-benzimidazol-1-yl)pyrazin-2-amine] | 100 to 3000 nM

Next, values leading:

EC50 | SMILES
100 to 3000 nM | FC(F)(F)c1ccc(Nc2cncc(-c3ccnc4ccccc34)n2)cc1 [compound 384, 6-(quinolin-4-yl)-N-[4-(trifluoromethyl)phenyl]pyrazin-2-amine]
100 to 3000 nM | FC(F)(F)c1ccc(Nc2cncc(-c3ccnc4cc(Cl)ccc34)n2)cc1 [compound 385, 6-(7-chloroquinolin-4-yl)-N-[4-(trifluoromethyl)phenyl]pyrazin-2-amine]
10 to 100 nM | Cc1nc2ccc(Br)cc2n1-c1cncc(Nc2ccc(C(F)(F)F)cc2)n1 [compound 388, 6-(6-bromo-2-methyl-1H-benzimidazol-1-yl)-N-[4-(trifluoromethyl)phenyl]pyrazin-2-amine]
10 to 100 nM | Cc1nc2ccccc2n1-c1cncc(Nc2ccc(C(F)(F)F)c(Cl)c2)n1 [compound 390, N-[3-chloro-4-(trifluoromethyl)phenyl]-6-(2-methyl-1H-benzimidazol-1-yl)pyrazin-2-amine]
10 to 100 nM | N#Cc1cc(Nc2ccc(OC(F)F)cc2)nc(-c2c(CO)nc3ccc(F)cn23)c1 [compound 393, 2-{[4-(difluoromethoxy)phenyl]amino}-6-[6-fluoro-2-(hydroxymethyl)imidazo[1,2-a]pyridin-3-yl]pyridine-4-carbonitrile]
10 to 100 nM | N#Cc1cc(Nc2ccc(OC(F)F)c(F)c2)nc(-c2c(CO)nc3ccc(F)cn23)c1 [compound 394, 2-{[4-(difluoromethoxy)-3-fluorophenyl]amino}-6-[6-fluoro-2-(hydroxymethyl)imidazo[1,2-a]pyridin-3-yl]pyridine-4-carbonitrile]
10 to 100 nM | Cc1nc2ccc(O)cn2c1-c1cc(C#N)cc(Nc2ccc(OC(F)(F)F)cc2)n1 [compound 396, 2-(6-hydroxy-2-methylimidazo[1,2-a]pyridin-3-yl)-6-{[4-(trifluoromethoxy)phenyl]amino}pyridine-4-carbonitrile]
1 to 10 nM | COCCn1nc(C)c(-c2cncc(Nc3ccc(C(F)(F)F)cc3)n2)c1C [compound 399, 6-[1-(2-methoxyethyl)-3,5-dimethyl-1H-pyrazol-4-yl]-N-[4-(trifluoromethyl)phenyl]pyrazin-2-amine]
10 to 100 nM | FC1CCc2nc(C(F)(F)F)c(-c3cncc(Nc4ccc(C(F)(F)F)cc4)n3)n2C1 (stereo not drawn) [compound 406, 6-[6-fluoro-2-(trifluoromethyl)-5,6,7,8-tetrahydroimidazo[1,2-a]pyridin-3-yl]-N-[4-(trifluoromethyl)phenyl]pyrazin-2-amine]
